Experimental data taken from patent US20100267803A1, “Regulators Of Fat Metabolism As Anti-Cancer Targets” (The Research Foundation of State University Of New York, priority 2008, published 2010).

Experiments:
Format in all cases: cell-based, human
[1] = system: BT474, MDA-MB-361, MCF-7 and HMEC cells; assay: Cell counts after PPARγ antagonist treatment; details: 10 and 20 μM for 72 hrs; % of vehicle
Protocol: FIG. 3 PPAR. inhibition impacts NR1D1 expression and ERBB2-positive cells viability. (a) Cell counts of BT474, MDA-MB-361, MCF-7 and HMEC cells treated with vehicle, 10 and 20 μM of the PPAR. antagonist GW9662 for 72 hrs. Results represented as % of control (vehicle). (Error bars are s.d from 3 individual experiments; *P>0.2, **P<0.05, ***P<0.002). (b) BT474 cells treated with vehicle or 20 μM of GW9662 for 48 h were immuno-stained for cleaved Caspase-3. (c) Quantification of Caspase-3 signal. (Error bars are s.d from 3 individual experiments; ***P=0.002). (d) aP2 and NR1D1 mRNA levels of BT474 cells treated with vehicle (control) and 20 μM of GW9662 for 48 h, analyzed by qRT-PCRs. (Error bars are s.d from 3 experiments; ***P<0.0006. (e) BMAL1-luc activity of BT474 cells treated with vehicle or 20 μM of GW9662 for 48 h. (Error bars are s.d from 3 individual experiments; **P=0.03). (f) Total ERBB2 western blot of BT474 cells treated with vehicle or 20 μM GW9662 for 72h. GAPDH was used as control.
(§1) Cell viability—apoptosis assays. […] At least 30 fields were imaged per single experiment. […] Immunoblotting. […] PCR reaction was run using standard conditions.

[2] = system: BT474 cells; assay: RNAi screen, alamarBlue cell proliferation and viability; details: shRNA transfection
From the text: (§2) FIG. 1 An RNAi screen targeting genes overexpressed in breast cancer. (a) Three transfection mixes were produced for each shRNA and each was transfected into triplicate wells of BT474 cells. AlamarBlue was used to monitor cell proliferation and viability. […] (b) The genetic and functional linkage of NR1D1 and PBP. Mb refers to map position on chromosome 17. (c) ERBB2-overexpressing (OEX) and ERBB2 non-overexpressing (non-OEX) breast cancer cell lines as well as the (non-OEX) HMEC and HEK 293 cells were transfected and assayed as in (a). […] Genes clustered with ERBB2 are boxed.
Amplification of the ERBB2 oncogene occurs in 10-34% of breast cancer cases and is correlated with aggressive disease and poor clinical outcome^1. […] However, its success has been tempered by response rates of only 30% when used as a single agent therapy in patients with metastatic ERBB2-positive breast cancer^2. A large number of genes co-overexpressed with ERBB2 in this tumour type have been proposed to contribute to the aggressiveness of this cancer^3-5. Applicants have performed an unbiased functional RNAi screen^8-10 to determine if any of these co-overexpressed genes are essential for ERBB2 positive breast cancer cell survival.
RNAi screen, transfections and constructs. The flag-RevErba (flag-NR1D1) overexpression construct was a generous gift of M. Lazar. The LSXN-neu* (ERBB2) overexpression construct was a generous gift of L. Petti. shRNA constructs were expressed from the pSHAG-MAGIC 2 (pSM2) vector and derived from a genome-wide shRNA library^31. ShRNAs targeting the firefly (Photinus pyralis) luciferase gene were used as controls. Transfection efficiency was monitored by co-transfection with a modified MSCV-Puro vector expressing green fluorescent protein (GFP). The alamarBlue (Biosource) assay was performed 96 h post-transfection, since BT474 cells have a population doubling time of ˜100 hours. For mature sequences of the shRNAs that produced the best results on decreasing BT474 viability, Table S1; a complete list is available in the RNAi Codex web page (http://codex.cshl.edu). The shRNAs targeting the luciferase gene were constructed as described in the RNAi Codex web page (http://codex.cshl.edu/scripts/newmain.pl) using a modified pSM2 vector containing the PheS gene (pSM2-PheS) in the cloning site, as a negative selection marker. The empty vector control (pSM2e) was constructed by XhoI and EcoRI (New England Biolabs) digestion of pSM2-PheS, followed by nucleotide filling of protruding ends by Klenow polymerase and blunt-end ligation. Transfections were performed using FuGENE 6 and HD FuGENE (Roche) according to the manufacturer's protocol. High-throughput transfections were performed using an EpMotion 5070 fluidics station (Eppendorf). For quantification of alamarBlue we used a BioTek HT Synergy plate reader. AlamarBlue values from the RNAi screens on other cell types were also calculated as above and subjected to hierarchical cluster analysis using Cluster 2.11 (M. Eisen Lab).

[3] = system: nonoverexpressing breast cancer cell lines (MCF-7, MDA-MB-453, MDA-MB-468), HMECs, HEK 293FT; assay: alamarBlue proliferation of shRNA-transfected ERBB2 non-overexpressing cell lines; details: MCF-7, MDA-MB-453, MDA-MB-468, HMEC, shRNA transfection
From the text: as §2
(§3) To assess the specificity of effect of each shRNA on cell proliferation, those causing the greatest decrease in BT474 cell proliferation were transfected in a variety of cell lines, including ERBB2 overexpressing (BT474, MDA-MB-361) and nonoverexpressing breast cancer cell lines (MCF-7, MDA-MB-453, MDA-MB-468), normal human mammary epithelial cells (HMECs) and a non-breast tumorigenic cell line (HEK 293FT). […] PBP, NRID1 and PFN2 shRNAs clustered with ERBB2.
(§4) RNAi screen, transfections and constructs. The flag-RevErba (flag-NR1D1) overexpression construct was a generous gift of M. Lazar. The LSXN-neu* (ERBB2) overexpression construct was a generous gift of L. Petti. shRNA constructs were expressed from the pSHAG-MAGIC 2 (pSM2) vector and derived from a genome-wide shRNA library^31. ShRNAs targeting the firefly (Photinus pyralis) luciferase gene were used as controls. Transfection efficiency was monitored by co-transfection with a modified MSCV-Puro vector expressing green fluorescent protein (GFP). The alamarBlue (Biosource) assay was performed 96 h post-transfection, since BT474 cells have a population doubling time of ˜100 hours. […] For quantification of alamarBlue we used a BioTek HT Synergy plate reader. AlamarBlue values from the RNAi screens on other cell types were also calculated as above and subjected to hierarchical cluster analysis using Cluster 2.11 (M. Eisen Lab).

[4] = system: ERBB2 overexpressing (BT474, MDA-MB-361) breast cancer cell lines; assay: alamarBlue proliferation of shRNA-transfected ERBB2-overexpressing cell lines; details: shRNA transfection
From the text: as §2, §3, §4

[5] = system: BT474 cells; assay: Counts of GFP co-transfected BT474 cells (cell death / viability); details: shRNA co-transfected with GFP, counted up to 72 h
Protocol: (§5) Results are shown as percentage of control. (**P=0.03). (c) BT474 cells were transfected with luciferase (control), PBP and NR1D1 shRNAs and co-transfected with GFP. Green cells were counted at intervals and expressed as percentage of control. (Error bars are s.d from 3 individual experiments; *P<0.08, **P<0.03, ***P<0.005). (d) BT474 cells were transfected with luciferase (control), PBP or NR shRNAs for 48 h. Immunofluorescence was performed for cleaved Caspase-3 signal; cell nuclei were stained with Hoechst 33243. (e) Cells from […] were counted for cleaved Caspase-3 signal. (Error bars are s.d from 3 individual experiments; ***P<0.0003). (f) BT474 cells were transfected with luciferase (control) PBP, NR1D1 or PBP and NR1D1 shRNAs together and co-transfected with GFP. Transfected cells were counted at 24 h and 72 h and the 72 h-to-24 h ratio for each shRNA was calculated and expressed as % of the control shRNA (luciferase). (Error bars are s.d from 3 individual experiments; **P=0.01, ***P<0.002). (g) Cells from (f) were counted for cleaved Caspase-3 signal. (Error bars are s.d from 3 individual experiments; ***P<0.0001). (h) ERBB2 mRNA levels of BT474 cells transfected with luciferase (control), PBP or NR1D1 shRNAs for 48 h, analyzed by qRT-PCRs. (Error bars are s.d from 3 individual experiments; ***P=0.0001).
FIG. 4 NR1D1 and PBP coordinate fatty acid metabolism in breast cancer cells. (a) BT474, MDA-MB-361, MCF-7 and HMEC cells were stained with Oil-Red O lipid and hematoxylin nuclear stains. (b) Fat stores were quantified by BODIPY 493/503 lipid probe staining (Error bars are s.d from 3 individual experiments). (c) FASN, ACLY, ACACA and FADS2 mRNA levels of BT474 cells treated with luciferase (control), PBP or NR1D1 shRNAs, or with vehicle and 20 μM of GW9662 for 48 h, analyzed by qRT-PCRs. (Error bars are s.d from 3 experiments; ***P<0.001, **P=0.005) (d) BT474 cells were transfected with FASN, ACLY and ACACA shRNAs and co-transfected with GFP. Transfected cells were counted at 24 h and 72 h and the 72h-to-24 h ratio for each shRNA was calculated and expressed as % of the control shRNA (luciferase). (Error bars are s.d from 3 individual experiments; **P<0.01, ***P<0.002). (e) BODIPY images and (f) quantification of BT474 cells transfected with luciferase (control), PBP or NR1D1 shRNAs and co-transfected with DsRed (Error bars are s.d from 3 individual experiments; ***P<0.03). Arrows indicate transfected cells.
FIG. 5. (a) MDH1 and ME1 mRNA levels of BT474 cells treated with luciferase (control), PBP or NR1D1 shRNAs for 48 h, analyzed by qRT-PCRs. (Error bars are s.d from 3 experiments; **P<0.002 (b) BT474 and MCF-7 cells were transfected with luciferase (control) MDH1 and ME1 shRNAs (Error bars are s.d from 3 individual experiments; ***P=0.0003). (c) BT474 cells) assayed for cleaved Caspase-3 signal by immunofluorescence 48 h after transfection; cell nuclei were stained with Hoechst 33243. (d) Quantification of cleaved Caspase-3 signal from cells in (c). (Error bars are s.d from 3 individual experiments; ***P<0.005). (e) Enzymes involved in fatty acid synthesis and storage that are regulated by NR1D1 and PBP and their proposed contribution to energy production necessary for survival of ERBB2-positive breast cancer cells.
as §1

[6] = system: BT474 cells; assay: Apoptosis by cleaved Caspase-3 or activated Bax immunofluorescence; details: 48 h of shRNA or 20 μM GW9662
Protocol: as §5
FIG. 3 PPAR. inhibition impacts NR1D1 expression and ERBB2-positive cells viability. (a) Cell counts of BT474, MDA-MB-361, MCF-7 and HMEC cells treated with vehicle, 10 and 20 μM of the PPAR. antagonist GW9662 for 72 hrs. Results represented as % of control (vehicle). (Error bars are s.d from 3 individual experiments; *P>0.2, **P<0.05, ***P<0.002). […] (c) Quantification of Caspase-3 signal. […] (d) aP2 and NR1D1 mRNA levels of BT474 cells treated with vehicle (control) and 20 μM of GW9662 for 48 h, analyzed by qRT-PCRs. […]
FIG. 5. (a) MDH1 and ME1 mRNA levels of BT474 cells treated with luciferase (control), PBP or NR1D1 shRNAs for 48 h, analyzed by qRT-PCRs. […] (d) Quantification of cleaved Caspase-3 signal from cells in (c). […]

Molecule	effect on cell proliferation [2]	cell death / viability (cell number of transfected cells) [5]	further results
O=C(Nc1ccncc1)c1cc([N+](=O)[O-])ccc1Cl [second PPARγ antagonist]			sensitivity of cells to drug treatment (cell counts) [1]: produced the same effects
TPD52 shRNA: shRNA, mature sequence CTGTGAGATTCCTACCTTT (shRNA)	significant effects on proliferation		
PFN2 shRNA: shRNA, mature sequence AGCATTACGCCAATAGAAA (shRNA)			effect on other cell lines or HMECs [3]: without effect on other cell lines or HMECs; viability of ERBB2-positive cells [4]: specifically decreased the viability of ERBB2-positive cells
ACLY shRNA: shRNA, mature sequence GGGAGGAAGCTGATGAATA (shRNA)		significantly decreased BT474 cell viability	
MAP2K6 shRNA: shRNA, mature sequence CAGATGACCTGGAGCCTAT (shRNA)	most dramatic effect on cell proliferation		
MDH1 shRNA: shRNA, mature sequence CGAGCTAAAGCTCAAATTG (shRNA)		cell death	apoptosis [6]: apoptosis
CA9 shRNA: shRNA, mature sequence CTTTGAATGGGCGAGTGAT (shRNA)	significant effects on proliferation		
ME1 shRNA: shRNA, mature sequence GGCTTTATCCTCCTTTGAA (shRNA)		cell death	apoptosis [6]: apoptosis
ACACA shRNA: shRNA, mature sequence CACATGACCTTAAGATTAT (shRNA)		significantly decreased BT474 cell viability	
FADS2 shRNA: shRNA, mature sequence CCCATAGGGAGCTGATCGT (shRNA)	moderate effect on cell proliferation		
FASN shRNA: shRNA, mature sequence CTGGCCCAGGCTGAAGTTT (shRNA)	moderate effect on cell proliferation	significantly decreased BT474 cell viability	
MKI67 shRNA: shRNA, mature sequence GCTACAAACTCCTAAGGAA (shRNA)	significant effects on proliferation		
